What was measured:
Amaranthus retroflexus [1] = test: Herbicidal activity, soil surface spray, insecticide-treated stem cutting (Example 6); format: in vivo; details: 3 cm stem cutting treated with clothianidin, thiamethoxiam, imidacloprid, dinotefuran, nitenpyram, acetamiprid or thiacloprid, four weeks after treatment
Amaranthus retroflexus [2] = test: Herbicidal activity, spray above weed before planting, insecticide-treated stem cutting (Example 7); format: in vivo; details: sprayed above weed, 3 cm stem cutting treated with clothianidin, thiamethoxiam, imidacloprid, dinotefuran, nitenpyram, acetamiprid or thiacloprid planted one week after treatment, four weeks after treatment
sugar cane [3] = test: Phytotoxicity on sugar cane, spray from upper side of pot, sugar cane at 4 to 5 leaves (Example 2); format: in vivo; details: 125 g (active ingredient)/ha, one week after treatment, scale 0 to 100
Protocol: A sugar cane, a foliage of which had grown to about 4 to 5 leaves, was selected, and the length of the stem cutting was adjusted to be 8 cm, 15 cm or 25 cm. The 8 cm or 15 cm stem cutting had one node, and the 25 cm stem cutting had two nodes. A soil was packed into a 32 cm×25 cm×11 cm plastic pot, and seeds of Amaranthus retroflexus were seeded thereon. […] On the date when the stem cutting was planted, and after planting of the stem cutting, a water-diluted liquid of a flumioxazin water dispersible granule (water dispersible granule containing 51% flumioxazin, trade name: Valor SX, manufactured by Valent USA Corporation) (250 ppm) was uniformly sprayed with a sprayer from an upper side of the pot at an amount described in Table 2. Thereafter, the pot for a test was placed in a greenhouse. One week after treatment with flumioxazin, phytotoxicity on sugar cane was determined and, four weeks after treatment with flumioxazin, the herbicidal activity against Amaranthus retroflexus was determined.

Amaranthus retroflexus [4] = test: Herbicidal activity, soil surface spray, strobilurin-treated stem cutting (Example 8); format: in vivo; details: 3 cm stem cutting treated with kresoxim-methyl, azoxystrobin or another listed strobilurin fungicide, four weeks after treatment
sugar cane [5] = test: Phytotoxicity on sugar cane, spray above weed one week before planting (Example 5)
Protocol: (§1) The “phytotoxicity” evaluated herein is the damage characteristic determined to be due to a treated compound, and is clearly discriminated from the damage characteristic caused by a harmful animal or plant disease.
A soil is packed into a plastic pot, and seeds of Amaranthus retroflexus are seeded thereon. Thereafter, the pot is placed in a greenhouse, and the weed is grown.
(§2) A 30 cm to 40 cm stem cutting of sugar cane is placed on a wet soil, and germination is stimulated. The stem cutting from which a bud has been grown to about 1 cm is selected, and the length of the stem cutting is adjusted to be 3 cm so that the stem cutting has one node.
(§3) The pot for a test is placed in a greenhouse.

sugar cane [6] = test: Phytotoxicity on sugar cane, spray above weed before planting, azole-fungicide-treated stem cutting (Example 11)
Protocol: as §1
A soil is packed into a plastic pat, and seeds of Amaranthus retroflexus are seeded thereon. Thereafter, the pot is placed in a greenhouse, and the weed is grown.
(§4) A 30 cm to 40 cm stem cutting of sugar cane is placed on a wet soil, and germination is stimulated. The stem cutting from which a bud has grown to about 1 cm is selected, and the length of the stem cutting is adjusted to be 3 cm so that the stem cutting has one node. Azaconazole, bitertanol, bromoconazole, cyproconazole, difenoconazole, diniconazole, epoxyconazole, fenbuconazole, fluquinconazole, flusilazole, flutriafol, hexaconazole, imibenconazole, ipconazole, metconazole, myclobutanil, penconazole, propiconazole, prothioconazole, simeconazole, tebuconazole, tetraconazole, triadimenol, triticonazole, fenarimol, nuarimol, pyrifenox, imazalil, oxpoconazole fumarate, pefurazoate, procloraz or triflumizole is adhered to the stem cutting.
as §3

sugar cane [7] = test: Phytotoxicity on sugar cane, soil surface spray, azole-fungicide-treated stem cutting (Example 10)
Description: as §1
as §4, with “30” for “30 cm”, “cutting. A soil is packed into a plastic pot, and seeds of Amaranthus retroflexus are seeded thereon. The stem cutting of sugar cane treated with azaconazole, bitertanol, bromoconazole, cyproconazole, difenoconazole, diniconazole, epoxyconazole, fenbuconazole, fluquinconazole, flusilazole, flutriafol, hexaconazole, imibenconazole, ipconazole, metconazole, myclobutanil, penconazole, propiconazole, prothioconazole, simeconazole, tebuconazole, tetraconazole, triadimenol, triticonazole, fenarimol, nuarimol, pyrifenox, imazalil, oxpoconazole fumarate, pefurazoate, procloraz or triflumizole is planted in the soil packed into the pot at a depth of 2 cm. […] Thereafter, the pot for a test is placed in a greenhouse.” for “cutting.”

sugar cane [8] = test: Phytotoxicity on sugar cane, soil surface spray after planting (Example 4)
Description: as §1
as §2, with “has” for “has been”, “node. A soil is packed into a plastic pot, and seeds of Amaranthus retroflexus are seeded thereon. The stem cutting of sugar cane is planted in the soil packed in the pot at a depth of 2 cm. […] Thereafter, the pot for a test is placed in a greenhouse.” for “node.”

Amaranthus retroflexus [9] = test: Herbicidal activity, soil surface spray after planting (Example 4); format: in vivo; details: 3 cm stem cutting, one node, soil surface spray on date of planting, four weeks after treatment
[10] = Example 5, sprayed above weed three weeks after seeding, 3 cm stem cutting planted one week after treatment, four weeks after treatment
[11] = Example 11, sprayed above weed, 3 cm stem cutting treated with azaconazole, bitertanol or another listed azole-type fungicide planted one week after treatment, four weeks after treatment
[12] = Example 10, 3 cm stem cutting treated with azaconazole, bitertanol or another listed azole-type fungicide, soil surface spray, four weeks after treatment
[13] = Example 4, 3 cm stem cutting, one node, soil surface spray on date of planting, four weeks after treatment

Q: For `C#CCN1C(=O)COc2cc(F)c(N3C(=O)C4=C(CCCC4)C3=O)cc21` [Flumioxazin, flumioxazin], which “herbicidal activity against Amaranthus retroflexus” value (“herbicidal activity” for short) (Amaranthus retroflexus [1]) is on record?
A: the controlling effect on a weed can be confirmed

Q: And the “herbicidal activity” value (Amaranthus retroflexus [2])?
A: the controlling effect on a weed can be confirmed

Q: What about the “Phytotoxicity on sugar cane” value (sugar cane [3]; stem cutting 8 cm (one node)) of the same compound?
A: 10

Q: What about the “Phytotoxicity on sugar cane” value (sugar cane [3]; stem cutting 15 cm (one node)) of the same compound?
A: 10

Q: What about the “Phytotoxicity on sugar cane” value (sugar cane [3]; stem cutting 25 cm (two nodes)) of the same compound?
A: 30

Q: And the “herbicidal activity” value (Amaranthus retroflexus [4])?
A: the controlling effect on a weed can be confirmed

Q: And the phytotoxicity (sugar cane [5]; [10])?
A: significant phytotoxicity on sugar cane is not found

Q: And the phytotoxicity (sugar cane [6]; [11])?
A: significant phytotoxicity on sugar cane is not observed

Q: What about the phytotoxicity (sugar cane [7]; [12]) of the same compound?
A: significant phytotoxicity on sugar cane is not observed

Q: `C#CCN1C(=O)COc2cc(F)c(-n3c(=O)n(C)c(=S)n(C)c3=O)cc21` [compound of the formula (I)] was tested. Which “herbicidal activity” value (Amaranthus retroflexus [1]) did it give?
A: the controlling effect on a weed can be confirmed

Q: And the “herbicidal activity” value (Amaranthus retroflexus [2])?
A: the controlling effect on a weed can be confirmed

Q: What about the “herbicidal activity” value (Amaranthus retroflexus [4]) of the same compound?
A: the controlling effect on a weed can be confirmed

Q: What about the phytotoxicity (sugar cane [5]; in vivo) of the same compound?
A: significant phytotoxicity on sugar cane is not found

Q: And the phytotoxicity (sugar cane [8]; in vivo)?
A: significant phytotoxicity on sugar cane is not observed

Q: And the phytotoxicity (sugar cane [6]; in vivo)?
A: significant phytotoxicity on sugar cane is not observed

Q: What about the phytotoxicity (sugar cane [7]; in vivo) of the same compound?
A: significant phytotoxicity on sugar cane is not observed

Q: And the “herbicidal activity” value (Amaranthus retroflexus [9])?
A: the controlling effect on a weed can be confirmed

Q: With `CC(C)Oc1cc(-n2nc(C(C)(C)C)oc2=O)c(Cl)cc1Cl` [oxadiazon] as the compound, how does the “herbicidal activity” value (Amaranthus retroflexus [1]) read?
A: the controlling effect on a weed can be confirmed

Q: And the “herbicidal activity” value (Amaranthus retroflexus [2])?
A: the controlling effect on a weed can be confirmed

Q: What about the “herbicidal activity” value (Amaranthus retroflexus [4]) of the same compound?
A: the controlling effect on a weed can be confirmed

Q: And the phytotoxicity (sugar cane [5]; in vivo)?
A: significant phytotoxicity on sugar cane is not found

Q: And the phytotoxicity (sugar cane [8]; in vivo)?
A: significant phytotoxicity on sugar cane is not observed

Q: What about the phytotoxicity (sugar cane [6]; in vivo) of the same compound?
A: significant phytotoxicity on sugar cane is not observed

Q: What about the phytotoxicity (sugar cane [7]; in vivo) of the same compound?
A: significant phytotoxicity on sugar cane is not observed

Q: What about the “herbicidal activity” value (Amaranthus retroflexus [9]) of the same compound?
A: the controlling effect on a weed can be confirmed

Q: How did the “herbicidal activity” value (Amaranthus retroflexus [1]) turn out when `CC(C)N(C)S(=O)(=O)NC(=O)c1cc(-n2c(=O)cc(C(F)(F)F)n(C)c2=O)c(F)cc1Cl` [Saflufenacil, saflufenacil] was run?
A: the controlling effect on a weed can be confirmed

Q: And the “herbicidal activity” value (Amaranthus retroflexus [2])?
A: the controlling effect on a weed can be confirmed

Q: What about the “herbicidal activity” value (Amaranthus retroflexus [4]) of the same compound?
A: the controlling effect on a weed can be confirmed

Q: What about the phytotoxicity (sugar cane [5]; [10]) of the same compound?
A: significant phytotoxicity on sugar cane is not found

Q: And the phytotoxicity (sugar cane [8]; [13])?
A: significant phytotoxicity on sugar cane is not observed

Q: And the phytotoxicity (sugar cane [6]; [11])?
A: significant phytotoxicity on sugar cane is not observed

Q: What about the phytotoxicity (sugar cane [7]; [12]) of the same compound?
A: significant phytotoxicity on sugar cane is not observed

Q: And the “herbicidal activity” value (Amaranthus retroflexus [9])?
A: the controlling effect on a weed can be confirmed

Q: `Cc1nn(-c2cc(NS(C)(=O)=O)c(Cl)cc2Cl)c(=O)n1C(F)F` [sulfentrazone] was tested. Which “herbicidal activity” value (Amaranthus retroflexus [1]) did it give?
A: the controlling effect on a weed can be confirmed

Q: And the “herbicidal activity” value (Amaranthus retroflexus [2])?
A: the controlling effect on a weed can be confirmed

Q: What about the “herbicidal activity” value (Amaranthus retroflexus [4]) of the same compound?
A: the controlling effect on a weed can be confirmed

Q: And the phytotoxicity (sugar cane [5]; in vivo)?
A: significant phytotoxicity on sugar cane is not found

Q: And the phytotoxicity (sugar cane [8]; in vivo)?
A: significant phytotoxicity on sugar cane is not observed

Q: What about the phytotoxicity (sugar cane [6]; in vivo) of the same compound?
A: significant phytotoxicity on sugar cane is not observed

Q: What about the phytotoxicity (sugar cane [7]; in vivo) of the same compound?
A: significant phytotoxicity on sugar cane is not observed

Q: What about the “herbicidal activity” value (Amaranthus retroflexus [9]) of the same compound?
A: the controlling effect on a weed can be confirmed

Q: How did the “herbicidal activity” value (Amaranthus retroflexus [1]) turn out when `CCOc1cc(Oc2ccc(C(F)(F)F)cc2Cl)ccc1[N+](=O)[O-]` [oxyfluorfen] was run?
A: the controlling effect on a weed can be confirmed

Q: And the “herbicidal activity” value (Amaranthus retroflexus [2])?
A: the controlling effect on a weed can be confirmed

Q: What about the “herbicidal activity” value (Amaranthus retroflexus [4]) of the same compound?
A: the controlling effect on a weed can be confirmed

Q: What about the phytotoxicity (sugar cane [5]; [10]) of the same compound?
A: significant phytotoxicity on sugar cane is not found

Q: What about the phytotoxicity (sugar cane [8]; [13]) of the same compound?
A: significant phytotoxicity on sugar cane is not observed

Q: What about the phytotoxicity (sugar cane [6]; [11]) of the same compound?
A: significant phytotoxicity on sugar cane is not observed

Q: And the phytotoxicity (sugar cane [7]; [12])?
A: significant phytotoxicity on sugar cane is not observed

Q: And the “herbicidal activity” value (Amaranthus retroflexus [9])?
A: the controlling effect on a weed can be confirmed

— US20140329682A1, “METHOD OF CONTROLLING WEED IN A SUGAR CANE FIELD” (SUMITOMO CHEMICAL COMPANY, LIMITED, priority 2011, published 2014)
